Test results taken from PubChem BioAssay AID1845200 (Molecular Pharmacology Branch, DTP, NCI, 2023).
Calls of active or inactive are those of the source. How the source made its calls: active means viability on the fitted dose curve at most 10% of control; inactive means the rest.

System: ASPS-1 complex tumor spheroids, viability
Assay: Anticancer human tumor ASPS-1 cell line growth inhibition;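 further: spheroids exposed to agents for 7 days after 3 days of growth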;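 on viability, T/C: 100% = DMSO vehicle treated spheroids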
Conditions: for IC50: curve of first compound; for viability, T/C: stronger effect = lower value
Outline: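 Complex spheroids of malignant cells with endothelial cells and mesenchymal stem cells; agents alone or combined, from near clinical Cmax (or 10 microM if unknown) down in half-log steps, 0.25% DMSO final.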

[1] = second compound 1 µM, first compound 0.00949 µM
[2] = second compound 1 µM, first compound 0.03 µM
[3] = second compound 1 µM, first compound 0.0949 µM
[4] = second compound 1 µM, first compound 0.3 µM
[5] = second compound 1 µM, first compound 0.949 µM
[6] = second compound 1 µM, first compound 3 µM
[7] = second compound 3.16 µM, first compound 0.00949 µM
[8] = second compound 3.16 µM, first compound 0.03 µM
[9] = second compound 3.16 µM, first compound 0.0949 µM
[10] = second compound 3.16 µM, first compound 0.3 µM
[11] = second compound 3.16 µM, first compound 0.949 µM
[12] = second compound 3.16 µM, first compound 3 µM
[13] = second compound 10 µM, first compound 0.00949 µM
[14] = second compound 10 µM, first compound 0.03 µM
[15] = second compound 10 µM, first compound 0.0949 µM
[16] = second compound 10 µM, first compound 0.3 µM
[17] = second compound 10 µM, first compound 0.949 µM
[18] = second compound 10 µM, first compound 3 µM
[19] = second compound 31.6 µM, first compound 0.00949 µM
[20] = second compound 31.6 µM, first compound 0.03 µM
[21] = second compound 31.6 µM, first compound 0.0949 µM
[22] = second compound 31.6 µM, first compound 0.3 µM
[23] = second compound 31.6 µM, first compound 0.949 µM
[24] = second compound 31.6 µM, first compound 3 µM
[25] = second compound 100 µM, first compound 0.00949 µM
[26] = second compound 100 µM, first compound 0.03 µM
[27] = second compound 100 µM, first compound 0.0949 µM
[28] = second compound 100 µM, first compound 0.3 µM
[29] = second compound 100 µM, first compound 0.949 µM
[30] = second compound 100 µM, first compound 3 µM

| Compound | IC50 (second compound 1 µM) | IC50 (second compound 3.16 µM) | IC50 (second compound 10 µM) | IC50 (second compound 31.6 µM) | IC50 (second compound 100 µM) | viability, T/C [3] | viability, T/C [4] | viability, T/C [5] | viability, T/C [6] | viability, T/C [9] | viability, T/C [10] | viability, T/C [11] | viability, T/C [12] | viability, T/C [15] | viability, T/C [16] | viability, T/C [17] | viability, T/C [18] | viability, T/C [21] | viability, T/C [22] | viability, T/C [23] | further results |
| --- | --- | --- | --- | --- | --- | --- | --- | --- | --- | --- | --- | --- | --- | --- | --- | --- | --- | --- | --- | --- | --- |
| CNCc1ccc(-c2cc(-c3nc(-c4ccc(S(=O)(=O)C(C)C)cc4)cnc3N)on2)cc1 + Cn1nnc2c(C(N)=O)ncn2c1=O | 0.565 µM | 0.738 µM | 0.259 µM | 0.292 µM | 0.184 µM | 105% | 72.5% | 31.1% | 7.06% | 92.6% | 69.3% | 45.6% | 9.69% | 87% | 40% | 30.4% | 6.72% | 67.4% | 48.7% | 31.2% | viability, T/C [1]: 104%; viability, T/C [2]: 104%; viability, T/C [7]: 109%; viability, T/C [8]: 106%; viability, T/C [13]: 98.8%; viability, T/C [14]: 103%; viability, T/C [19]: 88.5%; viability, T/C [20]: 78.9%; viability, T/C [24]: 12.9%; viability, T/C [25]: 79.1%; viability, T/C [26]: 78.4%; viability, T/C [27]: 58.2%; viability, T/C [28]: 41.6%; viability, T/C [29]: 21.7%; viability, T/C [30]: 1.51% |
| Cn1ncnc1[C@H]1c2n[nH]c(=O)c3cc(F)cc(c23)N[C@@H]1c1ccc(F)cc1 + Cn1nnc2c(C(N)=O)ncn2c1=O | > 3 µM | > 3 µM | > 3 µM | > 3 µM | > 3 µM | 97.5% | 103% | 96.3% | 74.1% | 96.2% | 95.8% | 91.1% | 67.8% | 80.1% | 83.4% | 71.7% | 61.1% | 76% | 67% | 56.5% | viability, T/C [1]: 98.8%; viability, T/C [2]: 98.9%; viability, T/C [7]: 99.7%; viability, T/C [8]: 95%; viability, T/C [13]: 86.2%; viability, T/C [14]: 89.6%; viability, T/C [19]: 78.5%; viability, T/C [20]: 76.3%; viability, T/C [24]: 53.2%; viability, T/C [25]: 56.4%; viability, T/C [26]: 50.8%; viability, T/C [27]: 52.2%; viability, T/C [28]: 58.7%; viability, T/C [29]: 54.5%; viability, T/C [30]: 50.8% |
| O=C(c1cc(Cc2n[nH]c(=O)c3ccccc23)ccc1F)N1CCN(C(=O)C2CC2)CC1 + Cn1nnc2c(C(N)=O)ncn2c1=O | > 30 µM | > 30 µM | > 30 µM | > 30 µM | 3.4 µM | 94.4% | 83.3% | 92.6% | 82.5% | 97.6% | 94.2% | 115% | 95.6% | 85.8% | 82.4% | 82.8% | 78.1% | 78.8% | 70.5% | 81.9% | viability, T/C (second compound 1 µM, first compound 9.49 µM): 95.6%; viability, T/C (second compound 1 µM, first compound 30 µM): 79.2%; outcome (second compound 3.16 µM, first compound 9.49 µM): inactive; viability, T/C (second compound 3.16 µM, first compound 30 µM): 76%; viability, T/C (second compound 10 µM, first compound 9.49 µM): 76.7%; viability, T/C (second compound 10 µM, first compound 30 µM): 75.5%; viability, T/C [24]: 72.3%; viability, T/C (second compound 31.6 µM, first compound 9.49 µM): 72.4%; viability, T/C (second compound 31.6 µM, first compound 30 µM): 58.6%; viability, T/C [27]: 68.7%; viability, T/C [28]: 61.1%; viability, T/C [29]: 51%; viability, T/C [30]: 54.3%; viability, T/C (second compound 100 µM, first compound 9.49 µM): 44.3%; viability, T/C (second compound 100 µM, first compound 30 µM): 49.1% |
